In brackets after ≈: the same amount, converted by molar mass.

Experiment [1] concerns HL-60. Nature of the experiment: Cytotoxicity against human HL-60 cells assessed as cell growth inhibition incubated for 72 hrs by tryphan blue staining based analysis. The format is functional. Particulars: HL-60, 72 h.
Experiment [2] relates to CCRF-CEM. Nature of the experiment: Cytotoxicity against human CCRF-CEM cells assessed as cell growth inhibition. The format is functional, cell-based.
Experiment [3] relates to PC-3. Nature of the experiment: Antiproliferative activity against human PC-3 cells assessed as reduction in cell viability measured after 24 hrs by MTT assay. The format is functional, cell-based. Particulars: PC-3, 24 h.
Experiment [4] concerns MCF7. Nature of the experiment: Cytotoxicity against human wild type MCF7 cells. Format: functional, cell-based.
The nature of experiment [5]: Cytotoxicity against human MCF7/Mitox cells. Format: functional, cell-based.
The subject of experiment [6] is MCF7-DOX. In words: Cytotoxicity against human MCF7-DOX cells. The format is functional, cell-based.
Experiment [7] deals with P388. In words: Cytotoxicity against mouse P388 cells. The format is functional, cell-based.
Experiment [8] can be described thus: Cytotoxicity against human KB-ChR-8-5 cells assessed as reduction in cell growth incubated for 7 days in presence of vinblastine. Format: functional, cell-based. Particulars: KB-ChR-8-5, 168 h.
For experiment [9], the system named is MCF7. Nature of the experiment: Cytotoxicity against human MCF7 cells assessed as reduction in cell growth incubated for 72 hrs by SRB assay. Particulars: MCF7, 72 h. The format is functional, cell-based.
Experiment [10] is described as follows: Cytotoxicity against human SW1398 cells assessed as cell growth inhibition incubated for 72 hrs by SRB assay. The format is functional, cell-based. Particulars: SW1398, 72 h.
Experiment [11] relates to WiDr. In words: Cytotoxicity against human WiDr cells assessed as cell growth inhibition incubated for 72 hrs by SRB assay. Format: functional, cell-based.
For experiment [12], the system named is MCF7. Nature of the experiment: Cytotoxicity against human MCF7 cells assessed as cell growth inhibition incubated for 72 hrs by SRB assay. Format: functional, cell-based. The conditions noted are these: MCF7, 72 h.
Experiment [13] has as its target MAP/microtubule affinity-regulating kinase 4 (Homo sapiens, UniProt Q96L34). In words: Inhibition of human MARK4 ATPase activity using ATP as substrate incubated for 10 to 20 mins by Biomol green reagent based ELISA analysis.
Experiment [14] relates to MCF7. In words: Antiproliferative activity against human MCF7 cells assessed as reduction in cell viability incubated for 48 hrs by MTT assay. The format is functional, cell-based. The conditions noted are these: MCF7, 48 h.
The test system of experiment [15] is Raji. In words: Antitumor activity against human Raji cells xenografted in ICR mouse assessed as reduction in tumor growth measured after 20 weeks. The format is functional. Further details: scale not given: the % may be the effect or the level left.
Experiment [16] deals with HepG2. In words: Cytotoxicity against human HepG2 cells assessed as reduction in cell viability incubated for 24 hrs by SRB assay. The format is functional, cell-based. Particulars: HepG2, 24 h.
Experiment [17] in a line: Cytotoxicity against human KKU-213C assessed as reduction in cell viability incubated for 24 hrs by SRB assay. Format: functional, cell-based.
For experiment [18], the system named is MCF7. Nature of the experiment: Cytotoxicity against human MCF7 cells assessed as reduction in cell viability incubated for 48 hrs by alamar blue reagent based fluorescence assay. Particulars: MCF7, 48 h. The format is functional.
The subject of experiment [19] is HepG2. Nature of the experiment: Cytotoxicity against human HepG2 cells assessed as reduction in cell viability incubated for 48 hrs by alamar blue reagent based fluorescence assay. The format is functional. The conditions noted are these: HepG2, 48 h.
Experiment [20] concerns MCF7. In words: Cytotoxicity against human MCF7 cells assessed as reduction in cell viability by SRB assay. The format is functional, cell-based.
Experiment [21] concerns MCF7. In words: Antitumor activity against human MCF7 cells xenografted in BALB/c nude mouse assessed as inhibition of tumor growth at 1 mg/kg, ip administered once daily for 21 days. Particulars: MCF7, 504 h, time 21 day, read-out: TGI. Format: functional.
Experiment [22] has as its system MCF7. Nature of the experiment: Cytotoxicity against human MCF7 cells assessed as reduction in cell viability measured after 72 hrs by MTT assay. Format: functional, cell-based. Particulars: MCF7, 72 h.
Experiment [23] concerns A-431. In words: Cytotoxicity against human A-431 cells assessed as reduction in cell viability measured after 72 hrs by MTT assay. The format is functional, cell-based. Particulars: A-431, 72 h.
For experiment [24], the system named is HeLa. Nature of the experiment: Cytotoxicity against human HeLa cells assessed as reduction in cell viability measured after 72 hrs by MTT assay. The format is functional, cell-based.
The subject of experiment [25] is MCF7. Nature of the experiment: Antiproliferative activity against human MCF7 cells assessed as reduction in cell viability incubated for 72 hrs by MTT assay. Format: functional, cell-based. The conditions noted are these: MCF7, 72 h.
The test system of experiment [26] is HepG2. In words: Antiproliferative activity against human HepG2 cells assessed as reduction in cell viability incubated for 72 hrs by MTT assay. Format: functional, cell-based. The conditions noted are these: HepG2, 72 h.
Experiment [27] has as its system PC-3. Nature of the experiment: Antiproliferative activity against human PC-3 cells assessed as reduction in cell viability incubated for 72 hrs by MTT assay. The format is functional, cell-based. The conditions noted are these: PC-3, 72 h.
Experiment [28] has as its system A549. Nature of the experiment: Antiproliferative activity against human A549 cells assessed as reduction in cell viability incubated for 72 hrs by MTT assay. The format is functional, cell-based. The conditions noted are these: A549, 72 h.

Chain of MAP/microtubule affinity-regulating kinase 4 (Q96L34 whole entry): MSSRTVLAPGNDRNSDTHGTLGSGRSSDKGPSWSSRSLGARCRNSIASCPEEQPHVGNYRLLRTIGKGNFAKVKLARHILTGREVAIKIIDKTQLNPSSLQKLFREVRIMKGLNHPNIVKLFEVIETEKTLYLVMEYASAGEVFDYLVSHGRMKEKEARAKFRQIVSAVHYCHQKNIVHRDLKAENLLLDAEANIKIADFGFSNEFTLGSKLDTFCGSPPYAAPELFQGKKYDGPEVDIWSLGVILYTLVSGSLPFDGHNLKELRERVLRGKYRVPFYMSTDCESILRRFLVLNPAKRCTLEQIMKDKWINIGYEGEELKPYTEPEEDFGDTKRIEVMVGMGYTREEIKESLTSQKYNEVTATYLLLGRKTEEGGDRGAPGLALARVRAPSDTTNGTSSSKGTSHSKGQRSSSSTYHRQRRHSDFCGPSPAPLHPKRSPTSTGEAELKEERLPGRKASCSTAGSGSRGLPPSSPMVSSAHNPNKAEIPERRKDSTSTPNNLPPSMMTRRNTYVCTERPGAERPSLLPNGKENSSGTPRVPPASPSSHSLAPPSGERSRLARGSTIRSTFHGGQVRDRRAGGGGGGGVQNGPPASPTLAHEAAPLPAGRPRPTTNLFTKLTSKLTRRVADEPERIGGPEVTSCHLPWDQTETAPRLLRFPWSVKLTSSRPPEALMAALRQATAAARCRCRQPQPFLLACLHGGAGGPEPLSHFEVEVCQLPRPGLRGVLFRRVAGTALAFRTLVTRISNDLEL

Take `CCN(CC)CCCCn1c2ccccc2c(=O)c2cc(F)ccc21`: in experiment [1], the IC50 was 0.51 µM.
`COc1cc(Cn2c3ccc(C(=O)CCN4CCCC4)cc3c(=O)c3cc(C(=O)NCCN4CCCC4)ccc32)cc(OC)c1`: the 50% inhibitory concentration (IC50) in experiment [2] came out at 0.28 µM.
As to `CCN(CC)CCNC(=O)c1ccc([N+](=O)[O-])c2[nH]c3ccccc3c(=O)c12`, the half-maximal inhibitory concentration (IC50) in experiment [3] amounted to 2 µM.
In the case of `O=C(c1cccc2c(=O)c3ccccc3[nH]c12)N1CCN(c2ccccc2)CC1`, the results for the IC50 in experiment [4], in experiment [5] and in experiment [6] were 4.5 µM, 5.1 µM and 6.5 µM, respectively.
With `CC(=O)Nc1cc2c(=O)c3ccccc3n3c(=O)n(CCN(C)C)c(=O)c(c1)c23`, in experiment [7], the 50% inhibitory concentration (IC50) stood at 0.86 µM.
For the compound `O=c1c2ccccc2n(CCCCN2CCN(CCO)CC2)c2ccc(Br)cc12`, the IC50 in experiment [8] was 3.7 µM.
As for `O=C(NC(=O)n1c(-c2ccccc2)nc2ccc(Br)cc2c1=O)c1cccc2c(=O)c3ccccc3[nH]c12`, the concentration for half-maximal inhibition (IC50) was determined as 2.9 µM in experiment [9], 6 µM in experiment [10], 9.8 µM in experiment [11] and 7.9 µM in [12].
Take `COc1ccc(CNC(=O)Cn2c3ccccc3c(=O)c3cc(C)ccc32)cc1`: the IC50 was determined as 1.8 µM in experiment [13] and 5.2 µM in experiment [14].
`CC(C)=CCc1c(O)c(CC=C(C)C)c2c(c1O)c(=O)c1ccccc1n2C`: in [15], the Activity is 48%.
As for `Cc1ccc2c(c1)c(=O)c1ccccc1n2CC(=O)NCc1ccccc1`, in [14], the half-inhibitory concentration (IC50) turned out to be 5.2 µM.
On to `COc1cc2[nH]c3c(O)cccc3c(=O)c2c(O)c1CC=C(C)C`, for which the IC50 in [16] and in experiment [17] was 1.43 mg/L (≈ 4.4 µM) in each case.
Consider `COc1cc(O)c(OC)c2c1c(=O)c1cccc(O)c1n2C`, for which the IC50 in [18] and in [19] was 0.22 µM throughout.
In the case of `COc1cccc2c(=O)c3ccccc3n(CCCCN3CCN(CCO)CC3)c12`, the IC50 in experiment [8] was less than 6 µM.
Regarding `Cc1ccc2c(c1)c(=O)c1ccccc1n2CCCCN(CCO)CCO`, the concentration for half-maximal inhibition (IC50) in [20] was 6.1 µM.
As for `Cc1cccc2c(=O)c3ccccc3n(CCCCN(CCO)CCO)c12`, the IC50 in experiment [20] was 8.1 µM.
In the case of `O=c1c2ccccc2[nH]c2ccccc12` [ACRIDONE], the inhibition in vivo at 1 mg/kg in experiment [21] was 29%.
Regarding `COc1cc2c(c(O)c1OC)c(=O)c1ccccc1n2C` [ARBORININE], the IC50 in [22], in experiment [23] and in [24] was 1.84 µM in each case.
`COc1c(O)ccc2c(=O)c3c(O)cc4c(c3n(C)c12)C=CC(C)(C)O4` [CITRACRIDONE I]: the IC50 in [25], in experiment [26], in [27] and in [28] was 12.5 µM in each case.
Regarding `COc1cc(O)c2c(=O)c3cccc(O)c3n(C)c2c1OC` [CITRUSININE-I], the IC50 in experiment [18] and in experiment [19] was 0.22 µM each time.

(Values after ChEMBL document CHEMBL5331043, “A comprehensive review on acridone based derivatives as future anti-cancer agents and their structure activity relationships” (Eur J Med Chem, 2022).)
